According to PMC2223489, “Influence of single and multiple doses of amifostine on the efficacy and the pharmacokinetics of carboplatin in mice” (British Journal of Cancer, 1997):

Assays:
[1] = tested on: human ovarian cancer xenograft OVCAR-3; experiment: Anti-tumour activity in s.c. OVCAR-3 xenografts in nude mice; type: in vivo; settings: for Growth inhibition (%) (Day): weekly x 2; for Anti-tumour activity (in words): OVCAR-3, carboplatin at the MTD of 60 mg kg-1, amifostine given three times
Method: (§1) British Joumal of Cancer (1997) 75(10), 1439-1446 ? […] The present study was carried out in well-established human ovarian cancer xenografts OVCAR-3, A2780 and FMa grown subcutaneously in the nude mouse. […] Its anti-tumour activity is assumed to result from the formation of platinum (Pt)-DNA adducts. The clinical use of carboplatin is limited by myelosuppression at a dose in the steep part of the dose-response curve. Therefore, much effort has been put into reducing the toxic side-effects to allow the administration of higher doses of carboplatin. Amifostine [Ethyol, WR-2721, S-2-(3-aminopropylamino)- ethylphosphorothioic acid], initially developed as a radioprotector, is approved for use as a protector against chemotherapy-induced toxicities in the USA and Europe (van der Vijgh and Peters, 1994). […] Such an approach is incorporated into clinical trials in which amifostine is given three times, just before and 2 and 4 h after carboplatin (Betticher et al, 1995; Vermorken et al, 1995). To date, clinical data are available for only a small number of patients. The Amifostine H2N - (CH2)3 - NH - (CH2)2 - S - P03H2 41 alkaline phosphatase WR-1 065 H2N - (CH2)3 - NH - (CH2)2 - S - H 4, oxidation Disulphides H2N - (CH2)3 - NH - (CH2)2 - S - S - R Figure 1 Structural formulas of amifostine, its active metabolite WR-1 065 and the disulphides [with WR-1 065 itself or with endogenous thiols (RSH)] […] However, the influence of multiple doses of amifostine on the anti-tumour activity of carboplatin was not studied. In the present experiments we investigated the influence of multiple doses of amifostine on the efficacy of carboplatin in tumour-bearing nude mice. We also investigated the influence of one and three doses of amifostine on the pharmacokinetics of carboplatin and the formation of Pt-DNA adducts in order to inter- pret the efficacy of carboplatin in the presence of amifostine. Furthermore, we determined the influence of a single dose and multiple doses of amifostine on the body temperature in nude mice.

[2] = tested on: human ovarian cancer xenograft A2780; experiment: Anti-tumour activity in s.c. A2780 xenografts in nude mice; type: in vivo; settings: for Growth inhibition (%) (Day): Table 1, carboplatin 60 mg kg-1 i.v. and/or amifostine 3 x 200 mg kg-1 i.p., weekly x 2; for Anti-tumour activity (in words): A2780, carboplatin at the MTD of 60 mg kg-1, amifostine given three times
Method: as §1

[3] = tested on: human ovarian cancer xenograft FMa; experiment: Anti-tumour activity in s.c. FMa xenografts in nude mice; type: in vivo; settings: for Anti-tumour activity (in words): carboplatin at the MTD of 60 mg kg-1, amifostine given three times; for Growth inhibition (%) (Day): weekly x 2
Method: as §1

[4] = Toxicity (weight loss, toxic deaths) in xenograft-bearing nude mice; type: in vivo, female athymic nude mice; settings: weekly x 2
Method: as §1

[5] = Pharmacokinetics of total platinum in OVCAR-3-bearing nude mice (flameless AAS); type: in vivo; settings: 0.5-24 h, carboplatin 60 mg kg-1 i.v. alone or + single dose amifostine 200 mg kg-1 i.p.
Method: as §1

[6] = tested on: DNA; experiment: Pt-DNA adduct levels in tissues of OVCAR-3-bearing nude mice (competitive ELISA); type: in vivo; settings: carboplatin 60 mg kg-1 alone or plus one dose of amifostine
Method: as §1

[7] = Body temperature (intrarectal) in non-tumour-bearing nude mice; type: in vivo; settings: carboplatin 60 mg kg-1 alone; in the 24 h following injection
Method: British Joumal of Cancer (1997) 75(10), 1439-1446 ? […] The present study was carried out in well-established human ovarian cancer xenografts OVCAR-3, A2780 and FMa grown subcutaneously in the nude mouse. […] Its anti-tumour activity is assumed to result from the formation of platinum (Pt)-DNA adducts. The clinical use of carboplatin is limited by myelosuppression at a dose in the steep part of the dose-response curve. Therefore, much effort has been put into reducing the toxic side-effects to allow the administration of higher doses of carboplatin. Amifostine [Ethyol, WR-2721, S-2-(3-aminopropylamino)- ethylphosphorothioic acid], initially developed as a radioprotector, is approved for use as a protector against chemotherapy-induced toxicities in the USA and Europe (van der Vijgh and Peters, 1994). […] Such an approach is incorporated into clinical trials in which amifostine is given three times, just before and 2 and 4 h after carboplatin (Betticher et al, 1995; Vermorken et al, 1995). To date, clinical data are available for only a small number of patients. […] Furthermore, we determined the influence of a single dose and multiple doses of amifostine on the body temperature in nude mice.

[8] = parameters: method as in Treskes et al, 1994; settings: given on days 0 and 7; allowing 10% weight loss within 2 weeks after the first injection; ref Treskes et al, 1994; cited from earlier work
[9] = OVCAR-3, day 28, Table 1, carboplatin 60 mg kg-1 i.v. and/or amifostine 3 x 200 mg kg-1 i.p.
[10] = OVCAR-3, day 35, Table 1, carboplatin 60 mg kg-1 i.v. and/or amifostine 3 x 200 mg kg-1 i.p.
[11] = day 29, Table 1, carboplatin 60 mg kg-1 i.v. and/or amifostine 3 x 200 mg kg-1 i.p.
[12] = day 36, Table 1, carboplatin 60 mg kg-1 i.v. and/or amifostine 3 x 200 mg kg-1 i.p.
[13] = A2780-bearing mice, Table 1, carboplatin 60 mg kg-1 i.v. and/or amifostine 3 x 200 mg kg-1 i.p.
[14] = FMa-bearing mice, Table 1, carboplatin 60 mg kg-1 i.v. and/or amifostine 3 x 200 mg kg-1 i.p.
[15] = OVCAR-3-bearing mice, Table 1, carboplatin 60 mg kg-1 i.v. and/or amifostine 3 x 200 mg kg-1 i.p.

In the case of NCCCNCCSP(=O)(O)O [amifostine, S-2-(3-aminopropylamino)-ethylphosphorothioic acid], the “Growth inhibition (%) (Day)” value [1, 9] is reported as 0.0%, the “Growth inhibition (%) (Day)” value [1, 10] is reported as 0.0% and the “Anti-tumour activity (in words)” value [1] is reported as “did not have any anti-tumour activity”. The “Growth inhibition (%) (Day)” value ([2]; A2780, day 11) was 31.1%, the “Growth inhibition (%) (Day)” value ([2]; A2780, day 14) was 17.4% and the “Anti-tumour activity (in words)” value [2] was “did not have any anti-tumour activity”. For the same molecule, the “Anti-tumour activity (in words)” value [3] was “did not have any anti-tumour activity”, the “Growth inhibition (%) (Day)” value [3, 11] was 20.3% and the “Growth inhibition (%) (Day)” value [3, 12] was 21.5%. For the same molecule, the Toxic deaths [4, 13] was 2/6, the Toxic deaths [4, 14] was 0/6 and the Toxic deaths [4, 15] was 1/6.
For N.N.O=C([O-])C1(C(=O)[O-])CCC1.[Pt+2] [carboplatin, cis-diammine( 1,1 -cyclobutanedicarboxylato)plat- inum(II)], the “Growth inhibition (%) (Day)” value ([1]; OVCAR-3, day 20, Table 2, carboplatin 60 mg kg-1 i.v. alone or + amifostine 1 x 200 mg kg-1 i.p.) was 88.5%, the “Growth inhibition (%) (Day)” value ([1]; OVCAR-3, day 27, Table 2, carboplatin 60 mg kg-1 i.v. alone or + amifostine 1 x 200 mg kg-1 i.p.) was 92.4% and the “Growth inhibition (%) (Day)” value [1, 9] was 93.2%. The “Growth inhibition (%) (Day)” value [1, 10] was 89.0%, the “Anti-tumour activity (in words)” value [1] was “active” and the “Growth inhibition (%) (Day)” value ([2]; A2780, day 11) was 28.8%. For the same molecule, the “Growth inhibition (%) (Day)” value ([2]; A2780, day 14) was 14.0%, the “Anti-tumour activity (in words)” value [2] was “no significant influence” and the “Anti-tumour activity (in words)” value [3] was “active”. The “Growth inhibition (%) (Day)” value ([3]; day 21, Table 2, carboplatin 60 mg kg-1 i.v. alone or + amifostine 1 x 200 mg kg-1 i.p.) was 79.2%, the “Growth inhibition (%) (Day)” value ([3]; day 28, Table 2, carboplatin 60 mg kg-1 i.v. alone or + amifostine 1 x 200 mg kg-1 i.p.) was 76.0% and the “Growth inhibition (%) (Day)” value [3, 11] was 90.3%. The “Growth inhibition (%) (Day)” value [3, 12] was 89.3%, the Toxic deaths [4, 13] was 0/5 and the Toxic deaths [4, 14] was 0/6. The Toxic deaths ([4]; FMa-bearing mice, Table 2, carboplatin 60 mg kg-1 i.v. alone or + amifostine 1 x 200 mg kg-1 i.p.) was 0/6, the Toxic deaths [4, 15] was 0/5 and the Toxic deaths ([4]; OVCAR-3-bearing mice, Table 2, carboplatin 60 mg kg-1 i.v. alone or + amifostine 1 x 200 mg kg-1 i.p.) was 0/6. For the same molecule, the “AUC of total platinum in OVCAR-3 tumour tissue” value [5] was 146.8 nmol g(-1) x h, the “AUC of total platinum in kidney” value [5] was 368.3 nmol g(-1) x h and the “AUC of total platinum in liver” value [5] was 236.4 nmol g(-1) x h. For the same molecule, the “AUC of total platinum in plasma ultrafiltrate” value [5] was 18.2 microM x h, the “Ratio AUC Pt-DNA adducts/AUC total platinum, kidney” value [6] was 0.51 and the “Ratio AUC Pt-DNA adducts/AUC total platinum, liver” value [6] was 0.23. The “Ratio AUC Pt-DNA adducts/AUC total platinum, tumour tissue” value [6] was 0.56, the “Body temperature (not decreased)” value [7] was 37 0C and the “Maximum tolerated dose (MTD) of carboplatin” value [8] was 60 mg kg-'.
